Source: patent US7378407B2, “Geldanamycin compounds and method of use” (Kosan Biosciences Incorporated, priority 2004, dated 2008)
Read-outs that look alike come from different tables or passages of the source.

Key:
SKBr3 cells = experiment: cells; assay type: cell-based, human; conditions: read-out: Cytotoxicity, SKBr3 Cells (IC50 (nM))
Procedure: The human breast cancer cell line SKBr3 was obtained from the American Type Culture Collection (Manassas, Va.) and maintained in McCoy's 5A modified medium (Invitrogen; Carlsbad, Calif.) supplemented with 10% fetal bovine serum (FBS) (Hyclone; Logan, Utah) and 2 mM glutamine, in humidified air with 5% CO2 at 37° C.
Cells were seeded in duplicate in 96-well black tissue culture microtiter plates at ˜4000 cells per well and allowed to attach overnight. Serial 10-fold dilutions of compounds were added, and the cells were incubated for 72 h. Cell viability was determined using the CellTiter-Glo™ Luminescent Cell Viability Assay (Promega; Madison, Wis.). IC50 is defined as the concentration of drug required for inhibiting cell growth by 50%.

human Hsp90α = human Hsp90α (Homo sapiens, UniProt P07900); experiment: Hsp90α binding, SPA competition with [allyl-3H]-17-AAG
Description: Truncated (Carreras et al. Anal. Biochem. 2003, 317, 40-46) and full-length forms of human Hsp90 were expressed in E. coli with N-terminal polyHis and biotinylation recognition sequence (BRS) tags to facilitate purification and SPA assay, respectively. […] The 3′ end of the gene contained a BamHI site, adding a single proline residue to the C-terminus. The tagged full-length protein was cloned into pET21d as described for the tagged N-domain of Hsp90 (Carreras et al., cited supra), and co-expressed with biotin ligase encoded by pBIRAcm (Avidity, Denver, Colo.) in Escherichia coli BL21DE(3).
Biotinylated Hsp90α was added to a 1 mg/mL suspension of streptavidin coated YiSi beads (Pharmacia RPNQ0012; 219 pmol streptavidin/mg) in Binding Buffer (10 mM Tris-HCl, 5 mM MgCl2, pH 7.0) to obtain a final concentration of 225 nM. […] Reaction mixtures were incubated for 2˜4 h at room temperature in 96-well assay plates, then signals for each reaction were measured using a Wallac Microbeta scintillation counter. The resulting data was fit to a competitive binding equation (Segal, I. H., Enzyme Kinetics: Behavior and analysis of rapid equilibrium and steady-state enzyme systems; Wiley Interscience: New York, 1975).

[1] = SK-BR-3, human breast cancer cell line SKBr3, 72 h incubation, concentration inhibiting cell growth by 50%
[2] = biotinylated Hsp90α on streptavidin beads, competition with [allyl-3H]-17-AAG, 2-4 h room temperature, pH 7.0, read-out: Hsp90α Binding (Kd (μM))

| Compound | IC50 (SKBr3 cells; [1]) [nM] | Kd (human Hsp90α; [2]) [µM] | IC50 (SKBr3 cells; Homo sapiens, SK-BR-3, 72 h) [nM] | Kd (human Hsp90α) [µM] |
| --- | --- | --- | --- | --- |
| CO[C@H]1/C=C\C=C(/C)C(=O)NC2=CC(=O)C(NCCC(=O)O)=C(C[C@@H](C)C[C@H](OC)[C@H](O)[C@@H](C)/C=C(\C)[C@@H]1OC(N)=O)C2=O [Compound 7] | > 5000 | 1.1 |  |  |
| CO[C@H]1/C=C\C=C(/C)C(=O)NC2=CC(=O)C(NCC[N+](C)(C)C)=C(C[C@@H](C)C[C@H](OC)[C@H](O)[C@@H](C)/C=C(\C)[C@@H]1OC(N)=O)C2=O [Compound 3, {[2-(17-demethoxygeldanamycin-17-yl)amino]ethyl}trimethylammonium chloride] | > 1000 | 0.3 |  |  |
| CO[C@H]1/C=C\C=C(/C)C(=O)NC2=CC(=O)C(N[C@@H]3C(O)O[C@@H](CO)[C@H](O)[C@H]3O)=C(C[C@@H](C)C[C@H](OC)[C@H](O)[C@@H](C)/C=C(\C)[C@@H]1OC(N)=O)C2=O (stereo partly shown) [Compound 1, 17-(glucos-2-amino)-17-demethoxygeldanamycin] | 1200 | 0.5 |  |  |
| CO[C@H]1/C=C\C=C(/C)C(=O)NC2=CC(=O)C(NCCOCCOCCOCCNC(=O)CCCC[C@@H]3SC[C@@H]4NC(=O)N[C@@H]43)=C(C[C@@H](C)C[C@H](OC)[C@H](O)[C@@H](C)/C=C(\C)[C@@H]1OC(N)=O)C2=O [Compound 6] | > 1000 | 1.1 |  |  |
| C=CCNC1=C2C[C@@H](C)C[C@H](OC)[C@H](O)[C@@H](C)/C=C(\C)[C@H](OC(N)=O)[C@@H](OC)/C=C\C=C(/C)C(=O)NC(=CC1=O)C2=O [Compound 17-AAG, 17-allylamino-17-demethoxy-geldanamycin, reference compound] |  |  | 38 |  |
| CO[C@H]1/C=C\C=C(/C)C(=O)NC2=CC(=O)C(NCCP(=O)(O)O)=C(C[C@@H](C)C[C@H](OC)[C@H](O)[C@@H](C)/C=C(\C)[C@@H]1OC(N)=O)C2=O [Compound 8] |  |  | ~3000 | 0.6 |
| CO[C@H]1/C=C\C=C(/C)C(=O)NC2=CC(=O)C(NCC[N+](C)(C)[O-])=C(C[C@@H](C)C[C@H](OC)[C@H](O)[C@@H](C)/C=C(\C)[C@@H]1OC(N)=O)C2=O [Compound 4, [2-(17-demethoxygeldanamycin-17-ylamino)-ethyl]dimethylamine N-oxide] | > 1000 | 0.6 |  |  |
| CO[C@H]1/C=C\C=C(/C)C(=O)NC2=CC(=O)C(NC[C@@H]3OC(O)[C@@H](O)[C@H](O)[C@H]3O)=C(C[C@@H](C)C[C@H](OC)[C@H](O)[C@@H](C)/C=C(\C)[C@@H]1OC(N)=O)C2=O (stereo partly shown) [Compound 2, 17-(glucos-6-amino)-17-demethoxygeldanamycin] | 5300 | 0.2 |  |  |
| CO[C@H]1/C=C\C=C(/C)C(=O)NC2=CC(=O)C(NCCCCP(=O)(O)O)=C(C[C@@H](C)C[C@H](OC)[C@H](O)[C@@H](C)/C=C(\C)[C@@H]1OC(N)=O)C2=O [Compound 10] |  |  | ~2000 |  |
| CO[C@H]1/C=C\C=C(/C)C(=O)NC2=CC(=O)C(NCCCP(=O)(O)O)=C(C[C@@H](C)C[C@H](OC)[C@H](O)[C@@H](C)/C=C(\C)[C@@H]1OC(N)=O)C2=O [Compound 9] |  |  | ~1000 | 0.9 |
| CO[C@H]1/C=C\C=C(/C)C(=O)NC2=CC(=O)C(NCCOCCOCCNC(=O)CCCC[C@@H]3SC[C@@H]4NC(=O)N[C@@H]43)=C(C[C@@H](C)C[C@H](OC)[C@H](O)[C@@H](C)/C=C(\C)[C@@H]1OC(N)=O)C2=O [Compound 5] | > 1000 |  |  |  |
